System: primary hepatocytes isolated from rats
Test: Hepatocyte protective effect against substances deriving hepatocyte toxicity (WST-1 viability)
Assay type: cell-based
Settings: Rattus norvegicus, Hepatocyte, doxorubicin, 24-48 h, read-out: EC50, cell protective effects against doxorubicin in hepatocytes
Description: Various endogenous/exogenous attacks on the cells trigger the mechanisms of cell death which is broadly classified into two types, i.e. apoptosis or necrosis. Using these cell death mechanisms, in the present experimental example, primary hepatocytes isolated from rats were treated with drugs which were clinically shown to result in serious side-effects of hepatocyte toxicity or various chemicals which derive cell death, and the compounds synthesized in the Examples were estimated for their hepatocyte protective effects, after 24-48 h. The substances used to derive hepatocyte death include CCl4, ActD, H2O2, doxorubicin, anti-Fas Ab/Actinomycin D, acetaminophen, EtOH, CdCl2, palmitate, stearate, cyclophosphamide, terfenadine, diclofenac, simvastatin, and adefovir. Primary hepatocytes were isolated using the method of Seglen PO (Experimental Cell Research 74 (1972) pp 450-454). Briefly, hepatocytes were isolated according to the two-step collagenase perfusion method, and dead cells were removed by low speed (500 rpm) centrifugation for 10 min using percoll gradient (Kreamer B L etc, In Vitro Cellular & Developmental Biology 22 (1986) pp 201-211). During this step, the viability of cells was maintained 90% or above. The cells were suspended in HepatoZYME media (Gibco BRL), and the number of cells was counted. 1.5×10^4 cells in 100 μl were placed into the collagen-coated 96-well plate (BD biocoat), and adhered on the bottom for 3-4 h.
In order to assess the hepatocyte protective effect, above adhered cells were pretreated with the Example compounds for 30 min. At this time, the concentration of the Example compounds were serially diluted by 2-fold or 3-fold over 5 steps starting from 30 uM, 10 uM or 1 uM depending on the experiments, and the final concentration of DMSO was adjusted to 0.2%. 30 min after the treatment by compounds, cells were treated by the substances deriving hepatocyte death or hepatotoxic drugs at the concentrations indicated in Table 1. After 24-48 h, the viability of cells was determined to estimate the hepatocyte protective effects. The viability of cells was determined using WST-1 (MK-400, […]) method by the absorbance at 440 nm. Hepatocyte protective effects of the Example compounds were represented by “EC50,” which was calculated from measured values. “EC50” herein means the concentration of the compound at which 50% of maximum protective effect is observed in the experiment.

| Structure (SMILES) | EC50 [nM] |
| --- | --- |
| Clc1cc(NC2CCOCC2)c2[nH]c(-c3ccccc3)c(CN3CCOCC3)c2c1 [Example 68, (Tetrahydropyran-4-yl)-(5-chloro-3-(morpholin-4-yl)methyl-2-phenyl-1H-indol-7-yl)-amine] | 320 |
| O=C1CN(Cc2c(-c3ccccc3)[nH]c3c(NC4CCCC4)cc(Cl)cc23)CCN1 [Example 70, Cyclopentyl-(5-chloro-3-(2-oxo-piperazin-4-yl)methyl-2-phenyl-1H-indol-7-yl)-amine] | 256 |
| Cc1cc(NC2CCN(C(=O)CO)CC2)c2[nH]c(-c3ccccc3)cc2c1 [Example 92, 2-Hydroxy-1-[4-(5-methyl-2-phenyl-1H-indol-7-yl)amino-piperidin-1-yl]-ethanone] | 36 |
| COc1ccc(-c2n[nH]c3c(NCC4CCOCC4)cccc23)cc1 [Example 159, [3-(4-Methoxyphenyl)-1H-indazol-7-yl)-(tetrahydropyran-4-ylmethyl)-amine] | 110 |
| O=C(O)C1CCC(Nc2cc(Cl)cc3cc(-c4ccccc4)[nH]c23)CC1 (stereo not shown) [Example 102, 4-(5-Chloro-2-phenyl-1H-indol-7-yl)amino-cyclohexane-1-carboxylic acid] | 300 |
| COC(=O)Cc1ccc(-c2cc3cc(Cl)cc(NCC4CCOCC4)c3[nH]2)cc1 [Example 144, 2-{4-[5-Chloro-7-(tetrahydropyran-4-ylmethyl)amino-1H-indol-2-yl]phenyl}-acetic acid methyl ester] | 300 |
| CCOc1cc(NC2CCCC2)c2[nH]c(-c3ccccn3)cc2c1 [Example 10, Cyclopentyl-[5-ethoxy-2-(pyridin-2-yl)-1H-indol-7-yl]-amine] | 200 |
| CC(=O)N1CCC(Nc2cc(C)cc3cc(-c4ccccc4)[nH]c23)CC1 [Example 45, 1-[-4-[(5-Methyl-2-phenyl-1H-indol-7-yl)amino]piperidin-1-yl]ethanone] | 210 |
| OCc1cc(NC2CCCC2)c2[nH]c(-c3ccccc3)cc2c1 [Example 29, Cyclopentyl-[5-hydroxymethyl-2-phenyl-1H-indol-7-yl]-amine] | 70 |
| CN(C)Cc1cccc(-c2cc3cc(Cl)cc(NC4CCOCC4)c3[nH]2)c1 [Example 147, [5-Chloro-2-(3-dimethylaminomethylphenyl)-1H-indol-7-yl]-(tetrahydropyran-4-yl)-amine] | 460 |
| COC(=O)c1ccccc1-c1cc2cc(Cl)cc(NC3CCCC3)c2[nH]1 [Example 135, 2-(5-Chloro-7-cyclopentylamino-1H-indol-2-yl)-benzoic acid methyl ester] | 150 |
| Cc1cc(NC2CCCC2)c2[nH]c(-c3ccccn3)cc2c1 [Example 1, Cyclopentyl-[5-methyl-2-(pyridin-2-yl)-1H-indol-7-yl]-amine] | 100 |
| O=C(O)c1cccc(-c2cc3cc(Cl)cc(NC4CCCC4)c3[nH]2)c1 [Example 124, 3-(7-Cyclopentylamino-5-chloro-1H-indol-2-yl)-benzoic acid] | 150 |
| Clc1cc(NC2CCOCC2)c2[nH]c(-c3cccc(CN4CCOCC4)c3)cc2c1 [Example 148, [5-Chloro-2-(3-morpholin-4-ylmethylphenyl)-1H-indol-7-yl]-(tetrahydropyran-4-yl)-amine] | 160 |
| Cc1cc(NC2CCCC2)c2[nH]ncc2c1 [Example 155, Cyclopentyl-(5-methyl-1H-indazol-7-yl)-amine] | 1300 |
| OCc1cccc(-c2cc3cc(Cl)cc(NC4CCOCC4)c3[nH]2)c1 [Example 126, {3-[5-Chloro-7-(tetrahydropyran-4-yl)amino-1H-indol-2-yl]-phenyl}-methanol] | 200 |
| COC(=O)Cc1ccc(-c2cc3cc(Cl)cc(NC4CCOCC4)c3[nH]2)cc1 [Example 146, 2-{4-[5-Chloro-7-(tetrahydropyran-4-yl)amino-1H-indol-2-yl]phenyl}-acetic acid methyl ester] | 330 |
| Cc1cc(NCC2CCCC2)c2[nH]c(-c3ccccn3)cc2c1 [Example 15, Cyclopentylmethyl-[5-methyl-2-(pyridin-2-yl)-1H-indol-7-yl]-amine] | 100 |

| Structure (SMILES) | EC50 [nM] |
| --- | --- |
| CC(=O)Nc1ccc(-c2cc3cc(N4CCS(=O)(=O)CC4)cc(NCC4CCOCC4)c3[nH]2)cc1 [Example 87, (Tetrahydropyran-4-yl)methyl-{5-(1,1-dioxo-thiomorpholin-4-yl)-2-[4-(acetyl)aminophenyl]-1H-indol-7-yl}-amine] | 600 |
| Fc1cc(NC2CCN(C3CCOCC3)CC2)c2[nH]c(-c3ccccc3)cc2c1 [Example 61, [1-(Tetrahydropyran-4-yl)piperidin-4-yl]-(5-fluoro-2-phenyl-1H-indol-7-yl)amine] | 260 |
| O=C(Nc1ccccc1)N1CCC(Nc2cc(Cl)cc3cc(-c4ccccc4)[nH]c23)CC1 [Example 94, 4-(5-Chloro-2-phenyl-1H-indol-7-yl)amino-piperidin-1-yl-carboxylic acid phenylamide] | 80 |
| Clc1cc(NCC2CCOCC2)c2[nH]cc(-c3ccccc3)c2c1 [Example 81, (Tetrahydropyran-4-yl)methyl-(5-chloro-3-phenyl-1H-indol-7-yl)-amine] | 110 |
| CC(Nc1cc(Cl)cc2cc(-c3ccccc3)[nH]c12)C(=O)O (stereo not shown) [Example 112, 2-(5-Chloro-2-phenyl-1H-indol-7-yl)amino-propionic acid] | 450 |
| O=S1(=O)CCN(Cc2cc(NC3CCCC3)c3[nH]c(-c4ccccc4)c(Br)c3c2)CC1 [Example 73, Cyclopentyl-(3-bromo-5-(1,1-dioxo-thiomorpholin-4-yl)methyl-2-phenyl-1H-indol-7-yl)-amine] | 120 |
| Clc1cc(NC2CCCCC2)c2[nH]c(-c3ccccc3)cc2c1 [Example 47, Cyclohexyl-(5-chloro-2-phenyl-1H-indol-7-yl)-amine] | 50 |
| O=S1(=O)CCN(Cc2cc(NC3CCOCC3)c3[nH]c(-c4ccccc4)c(Br)c3c2)CC1 [Example 72, (Tetrahydropyran-4-yl)-(3-bromo-5-(1,1-dioxo-thiomorpholin-4-yl)methyl-2-phenyl-1H-indol-7-yl)-amine] | 60 |
| CNC(=O)C1CCC(Nc2cc(Cl)cc3cc(-c4ccccc4)[nH]c23)CC1 (stereo not shown) [Example 105, 4-(5-Chloro-2-phenyl-1H-indol-7-yl)amino-cyclohexanecarboxylic acid methylamide] | 70 |
| O=S1(=O)CCN(CCc2cccc(-c3cc4cc(Cl)cc(NC5CCOCC5)c4[nH]3)c2)CC1 [Example 152, {5-Chloro-2-[3-(1,1-dioxo-thiomorpholin-4-yl)ethylphenyl]-1H-indol-7-yl}-(tetrahydropyran-4-yl)-amine] | 240 |
| CCN(CC)CCn1c(-c2ccccc2)cc2cc(Cl)cc(NC3CCOCC3)c21 [Example 64, (Tetrahydropyran-4-yl)-[5-chloro-1-(2-diethylaminoethyl)-2-phenyl-1H-indol-7-yl]amine] | 260 |
| Cc1cc(NC2CCN(Cc3ccccc3)C2)c2[nH]c(-c3ccccn3)cc2c1 (stereo not shown) [Example 14, (1-Benzylpyrrolidin-3-yl)[5-methyl-2-(pyridin-2-yl)-1H-indol-7-yl]-amine] | 300 |
| CC(C)(C)OC(=O)Nc1ccc(-c2cc3cc(Cl)cc(NC4CCCC4)c3[nH]2)cc1 [Example 78, t-Butyl N-[4-[5-chloro-7-(cyclopentylamino)-1H-indol-2-yl]phenyl]carbamate] | 210 |
| Brc1c(-c2ccccc2)[nH]c2c(NC3CCOCC3)cc(CN3CCOCC3)cc12 [Example 162, (Tetrahydropyran-4-yl)-[3-bromo-5-(morpholin-4-yl)methyl-2-phenyl-1H-indol-7-yl]-amine] | 700 |
| c1ccc(Oc2cc(NC3CCOCC3)c3[nH]c(-c4ccccc4)cc3c2)cc1 [Example 62, (Tetrahydropyran-4-yl)-(5-phenoxy-2-phenyl-1H-indol-7-yl)-amine] | 110 |
| Clc1cc(NC2CCCC2)c2[nH]c(-c3ccccc3)c(CN3CCOCC3)c2c1 [Example 67, Cyclopentyl-(5-chloro-3-(morpholin-4-yl)methyl-2-phenyl-1H-indol-7-yl)-amine] | < 130 |
| Cc1cc(NC2CCNCC2)c2[nH]c(-c3ccccc3)cc2c1 [Example 90, (5-Methyl-2-phenyl-1H-indol-7-yl)-piperidin-4-yl-amine] | 146 |
| Clc1cc(NC2CCCC2)c2[nH]cc(-c3ccccc3)c2c1 [Example 80, Cyclopentyl-(5-chloro-3-phenyl-1H-indol-7-yl)-amine] | 100 |

Same assay, conditions: doxorubicin; rat primary hepatocytes; 24-48 h; read-out: EC50, cell protective effects against doxorubicin in hepatocytes

| Structure (SMILES) | EC50 [nM] |
| --- | --- |
| CN1CCC(CNc2cc(F)cc3cc(-c4ccccc4)[nH]c23)CC1 [Example 59, (1-Methyl-piperidinemethyl-4-yl)-[5-fluoro-2-phenyl-1H-indol-7-yl]amine] | 200 |

From patent publication US9000028B2, “Indole and indazole compounds as an inhibitor of cellular necrosis” (LG Life Sciences Ltd., priority 2007, dated 2015)
